Experimental findings from publication PMC10879502, “Linking ATP and allosteric sites to achieve superadditive binding with bivalent EGFR kinase inhibitors” (Communications Chemistry, 2024) are described below.

One assay has as its target T1, WT EGFR kinase domain (Homo sapiens, UniProt P00533).
T1 construct: The EGFR kinase domain (residues 696–1022) was cloned into pTriEx; 6xHis (N, cleaved yes); GST (N, cleaved yes); made in house; host or cells: SF9 insect cells, baculovirus
Briefly: HTRF KinEASE-TK kinase activity assay. The class given is biochemical. As to conditions: enzyme 10 nM, ATP 100 µM; read-out: Biochemical EGFR IC50, WT. For orientation: In TR-FRET formats the signal depends on donor and acceptor labels being close together.

The target in the next assay is PKNB(M.tuberculosis) (Mycobacterium tuberculosis, UniProt P9WI81). Briefly: KINOMEscan. Conditions: 1 μM. Format: binding.
Another assay addresses T2, DAPK1 (Homo sapiens, UniProt P53355).
T2 construct: purchased Eurofins DiscoverX Corporation
Briefly: KINOMEscan. The class given is binding. Conditions: 1 μM.

In the next assay the target is T3, HIPK1 (Homo sapiens, UniProt Q86Z02).
T3 construct: purchased Eurofins DiscoverX Corporation
The assay can be described thus: KINOMEscan. The class given is binding. As to conditions: 1 μM.

A further assay has as its target PIKFYVE (Homo sapiens, UniProt Q9Y2I7). Briefly: KINOMEscan. The class given is binding. As to conditions: 1 μM.
In another assay the target is ERK8 (Homo sapiens, UniProt Q8TD08). Briefly: KINOMEscan. Format: binding. As to conditions: 1 μM.
In a further assay the target is T4, CAMKK1 (Homo sapiens, UniProt Q8N5S9).
T4 construct: purchased Eurofins DiscoverX Corporation (KINOMEscan)
Briefly: KINOMEscan. Conditions: 1 μM. The class given is binding.

The next assay has as its target T5, MEK5 (Homo sapiens, UniProt Q13163).
T5 construct: purchased Eurofins DiscoverX Corporation
The assay can be described thus: KINOMEscan. Conditions: 1 μM. Format: binding.

In the next assay the target is T6, ABL2 (Homo sapiens, UniProt P42684).
T6 construct: purchased Eurofins DiscoverX Corporation
Briefly: KINOMEscan. The class given is binding. As to conditions: 1 μM.

The target in a further assay is T7, MEK2 (Homo sapiens, UniProt P36507).
T7 construct: purchased Eurofins DiscoverX Corporation
Briefly: KINOMEscan. Format: binding. As to conditions: 1 μM.

The target in a further assay is T8, IKK-epsilon (Homo sapiens, UniProt Q14164).
T8 construct: purchased Eurofins DiscoverX (KINOMEscan)
Briefly: KINOMEscan. The class given is binding. Conditions: 1 μM.

Another assay has as its target PKAC-alpha (Homo sapiens, UniProt P17612). Briefly: KINOMEscan. Format: binding. As to conditions: 1 μM.
The next assay deals with TYRO3 (Homo sapiens, UniProt Q06418). Briefly: KINOMEscan. The class given is binding. Conditions: 1 μM.
Another assay addresses FLT3(D835Y) (Homo sapiens, UniProt P36888, D835Y). Briefly: KINOMEscan. Format: binding. As to conditions: 1 μM.
A further assay has as its target STK33 (Homo sapiens, UniProt Q9BYT3). The assay can be described thus: KINOMEscan. The class given is binding. Conditions: 1 μM.
A further assay concerns the target T9, HCK (Homo sapiens, UniProt P08631).
T9 construct: purchased Eurofins DiscoverX Corporation
The assay can be described thus: KINOMEscan. The class given is binding. Conditions: 1 μM.

Another assay addresses T10, TSSK1B (Homo sapiens, UniProt Q9BXA7).
T10 construct: purchased Eurofins DiscoverX Corporation
The assay can be described thus: KINOMEscan. The class given is binding. Conditions: 1 μM.

The target in a further assay is RET(V804L) (Homo sapiens, UniProt P07949, V804L). The assay can be described thus: KINOMEscan. The class given is binding. As to conditions: 1 μM.
The next assay has as its target PRKCI (Homo sapiens, UniProt P41743). Briefly: KINOMEscan. Conditions: 1 μM. Format: binding.
A further assay has as its target PRKG1 (Homo sapiens, UniProt Q13976). Briefly: KINOMEscan. Format: binding. Conditions: 1 μM.
Another assay concerns the target T11, BRAF (Homo sapiens, UniProt P15056).
T11 construct: purchased Eurofins DiscoverX Corporation (KINOMEscan)
The assay can be described thus: KINOMEscan. The class given is binding. Conditions: 1 μM.

The target of a further assay is EGFR(L747-S752del+P753S) (Homo sapiens, UniProt P00533, DEL747-752/P753S). Briefly: KINOMEscan. Format: binding. As to conditions: 1 μM.
The target in a further assay is PIP5K1C (Homo sapiens, UniProt O60331). Briefly: KINOMEscan. The class given is binding. Conditions: 1 μM.
For assay [1], the target named is RSK2(Kin.Dom.1-N-terminal) (Homo sapiens, UniProt P51812). The assay can be described thus: KINOMEscan. The class given is binding. As to conditions: 1 μM.
The next assay addresses T12, TBK1 (Homo sapiens, UniProt Q9UHD2).
T12 construct: purchased Eurofins DiscoverX Corporation
The assay can be described thus: KINOMEscan. Format: binding. As to conditions: 1 μM.

The next assay concerns the target RIPK5 (Homo sapiens, UniProt Q6XUX3). Briefly: KINOMEscan. As to conditions: 1 μM. Format: binding.
A further assay concerns the target PIK3CA(E542K) (Homo sapiens, UniProt P42336, E542K). The assay can be described thus: KINOMEscan. Format: binding. As to conditions: 1 μM.
For a further assay, the target named is CHEK2 (Homo sapiens, UniProt O96017). Briefly: KINOMEscan. Format: binding. As to conditions: 1 μM.
The next assay addresses T13, IGF1R (Homo sapiens, UniProt P08069).
T13 construct: purchased Eurofins DiscoverX (KINOMEscan)
Briefly: KINOMEscan. The class given is binding. Conditions: 1 μM.

In a further assay the target is T14, MET (Homo sapiens, UniProt P08581).
T14 construct: purchased Eurofins DiscoverX Corporation
Briefly: KINOMEscan. Format: binding. As to conditions: 1 μM.

For the next assay, the target named is EPHB6 (Homo sapiens, UniProt O15197). The assay can be described thus: KINOMEscan. The class given is binding. As to conditions: 1 μM.
Another assay concerns the target T15, CAMK1B (Homo sapiens, UniProt Q6P2M8).
T15 construct: purchased Eurofins DiscoverX Corporation (KINOMEscan)
The assay can be described thus: KINOMEscan. The class given is binding. Conditions: 1 μM.

For the next assay, the target named is T16, MET(M1250T) (Homo sapiens, UniProt P08581, M1250T).
T16 construct: purchased Eurofins DiscoverX Corporation
Briefly: KINOMEscan. Conditions: 1 μM. Format: binding.

The target of another assay is T17, NEK4 (Homo sapiens, UniProt P51957).
T17 construct: purchased Eurofins DiscoverX Corporation
Briefly: KINOMEscan. Format: binding. Conditions: 1 μM.

In another assay the target is T18, GRK2 (Homo sapiens, UniProt P25098).
T18 construct: purchased Eurofins DiscoverX Corporation
Briefly: KINOMEscan. The class given is binding. As to conditions: 1 μM.

The target in a further assay is SRC (Homo sapiens, UniProt P12931). Briefly: KINOMEscan. Format: binding. As to conditions: 1 μM.
In a further assay the target is T19, BRSK2 (Homo sapiens, UniProt Q8IWQ3).
T19 construct: purchased Eurofins DiscoverX Corporation (KINOMEscan)
The assay can be described thus: KINOMEscan. The class given is binding. As to conditions: 1 μM.

In another assay the target is T20, CASK (Homo sapiens, UniProt O14936).
T20 construct: purchased Eurofins DiscoverX Corporation (KINOMEscan)
Briefly: KINOMEscan. Conditions: 1 μM. Format: binding.

The next assay deals with T21, DCAMKL2 (Homo sapiens, UniProt Q8N568).
T21 construct: purchased Eurofins DiscoverX Corporation
The assay can be described thus: KINOMEscan. As to conditions: 1 μM. The class given is binding.

A value given as a limit tells only on which side of the number the result lay.

Sequence of PIK3CA(E542K) (P42336 whole entry E542K): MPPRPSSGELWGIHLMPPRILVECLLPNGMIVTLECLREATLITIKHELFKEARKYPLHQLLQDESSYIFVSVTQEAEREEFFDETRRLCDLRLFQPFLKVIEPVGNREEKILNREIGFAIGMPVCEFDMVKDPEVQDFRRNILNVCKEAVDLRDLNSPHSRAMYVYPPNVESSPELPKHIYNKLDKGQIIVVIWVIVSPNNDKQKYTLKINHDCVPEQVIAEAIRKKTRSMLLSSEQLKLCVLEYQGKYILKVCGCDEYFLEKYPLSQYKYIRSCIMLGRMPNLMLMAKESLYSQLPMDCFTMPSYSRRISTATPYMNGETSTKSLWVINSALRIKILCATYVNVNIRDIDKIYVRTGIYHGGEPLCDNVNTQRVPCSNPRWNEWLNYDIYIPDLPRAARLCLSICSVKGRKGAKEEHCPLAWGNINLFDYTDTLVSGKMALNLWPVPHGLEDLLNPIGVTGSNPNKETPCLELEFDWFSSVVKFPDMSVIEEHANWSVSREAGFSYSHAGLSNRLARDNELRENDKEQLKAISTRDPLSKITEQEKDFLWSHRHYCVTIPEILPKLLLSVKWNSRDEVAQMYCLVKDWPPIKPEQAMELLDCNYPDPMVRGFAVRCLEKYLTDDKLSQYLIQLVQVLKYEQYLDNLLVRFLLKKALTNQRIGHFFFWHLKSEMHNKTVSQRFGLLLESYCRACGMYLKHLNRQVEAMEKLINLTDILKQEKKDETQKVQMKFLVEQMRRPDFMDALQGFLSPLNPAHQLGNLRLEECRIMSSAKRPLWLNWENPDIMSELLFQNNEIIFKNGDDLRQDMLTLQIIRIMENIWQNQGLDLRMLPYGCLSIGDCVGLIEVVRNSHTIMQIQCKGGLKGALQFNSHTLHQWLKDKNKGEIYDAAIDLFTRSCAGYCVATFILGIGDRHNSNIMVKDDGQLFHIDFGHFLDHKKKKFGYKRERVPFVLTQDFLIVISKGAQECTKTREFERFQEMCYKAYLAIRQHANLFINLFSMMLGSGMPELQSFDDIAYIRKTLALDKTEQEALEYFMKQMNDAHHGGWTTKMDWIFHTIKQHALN
Sequence of PIKFYVE (Q9Y2I7 whole entry): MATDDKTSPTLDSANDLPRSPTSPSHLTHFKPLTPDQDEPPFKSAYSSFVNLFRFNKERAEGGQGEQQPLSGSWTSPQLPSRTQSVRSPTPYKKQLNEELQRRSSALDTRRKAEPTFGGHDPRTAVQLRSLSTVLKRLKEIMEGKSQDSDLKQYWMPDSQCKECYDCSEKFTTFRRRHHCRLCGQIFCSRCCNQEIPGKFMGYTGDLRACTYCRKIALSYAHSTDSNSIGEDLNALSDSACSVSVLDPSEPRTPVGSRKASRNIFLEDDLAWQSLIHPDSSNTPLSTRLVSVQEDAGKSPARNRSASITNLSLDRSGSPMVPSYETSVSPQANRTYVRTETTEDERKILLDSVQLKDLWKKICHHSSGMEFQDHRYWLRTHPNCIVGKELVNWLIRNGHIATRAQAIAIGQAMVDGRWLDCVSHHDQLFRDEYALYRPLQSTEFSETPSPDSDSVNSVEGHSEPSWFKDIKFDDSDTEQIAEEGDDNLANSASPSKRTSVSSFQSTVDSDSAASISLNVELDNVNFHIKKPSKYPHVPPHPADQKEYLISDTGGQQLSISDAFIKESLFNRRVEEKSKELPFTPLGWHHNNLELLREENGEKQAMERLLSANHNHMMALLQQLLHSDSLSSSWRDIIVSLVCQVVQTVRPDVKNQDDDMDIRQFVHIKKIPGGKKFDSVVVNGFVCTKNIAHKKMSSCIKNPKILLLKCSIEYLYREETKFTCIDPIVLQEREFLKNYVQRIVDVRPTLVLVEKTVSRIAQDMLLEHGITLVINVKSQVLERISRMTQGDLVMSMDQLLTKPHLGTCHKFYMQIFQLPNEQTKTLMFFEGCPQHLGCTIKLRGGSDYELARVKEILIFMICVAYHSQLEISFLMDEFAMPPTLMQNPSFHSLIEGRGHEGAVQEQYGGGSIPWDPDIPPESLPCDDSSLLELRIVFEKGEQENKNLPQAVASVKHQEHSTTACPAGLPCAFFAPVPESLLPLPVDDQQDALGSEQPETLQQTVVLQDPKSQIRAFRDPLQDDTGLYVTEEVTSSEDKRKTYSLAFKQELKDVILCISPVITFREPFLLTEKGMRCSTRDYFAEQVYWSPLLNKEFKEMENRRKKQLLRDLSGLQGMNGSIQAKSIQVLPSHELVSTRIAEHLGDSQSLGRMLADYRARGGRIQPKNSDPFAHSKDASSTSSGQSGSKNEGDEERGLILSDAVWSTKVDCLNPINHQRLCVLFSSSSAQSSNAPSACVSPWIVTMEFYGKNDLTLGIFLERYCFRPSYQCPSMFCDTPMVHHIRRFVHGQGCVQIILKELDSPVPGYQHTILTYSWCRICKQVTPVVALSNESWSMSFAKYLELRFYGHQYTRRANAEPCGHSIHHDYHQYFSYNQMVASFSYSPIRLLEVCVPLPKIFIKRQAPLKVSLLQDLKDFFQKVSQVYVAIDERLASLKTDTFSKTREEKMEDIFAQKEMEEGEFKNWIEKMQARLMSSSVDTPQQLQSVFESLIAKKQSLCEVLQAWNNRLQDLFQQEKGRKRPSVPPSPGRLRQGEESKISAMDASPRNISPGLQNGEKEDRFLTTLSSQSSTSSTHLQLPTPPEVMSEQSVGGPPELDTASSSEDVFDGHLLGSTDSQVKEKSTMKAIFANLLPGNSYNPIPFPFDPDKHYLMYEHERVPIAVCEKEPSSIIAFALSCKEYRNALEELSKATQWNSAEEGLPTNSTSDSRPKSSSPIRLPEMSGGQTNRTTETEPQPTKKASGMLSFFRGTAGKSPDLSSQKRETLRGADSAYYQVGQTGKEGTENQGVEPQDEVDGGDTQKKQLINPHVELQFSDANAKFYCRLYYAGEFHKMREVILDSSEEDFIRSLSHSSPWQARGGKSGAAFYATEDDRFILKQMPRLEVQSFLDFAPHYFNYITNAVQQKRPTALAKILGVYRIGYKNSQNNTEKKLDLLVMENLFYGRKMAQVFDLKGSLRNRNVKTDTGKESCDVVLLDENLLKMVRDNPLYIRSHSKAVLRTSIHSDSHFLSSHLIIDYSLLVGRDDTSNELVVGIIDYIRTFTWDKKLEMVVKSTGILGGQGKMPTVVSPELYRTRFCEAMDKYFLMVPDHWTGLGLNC
Sequence of RET(V804L) (P07949 29-1114 V804L): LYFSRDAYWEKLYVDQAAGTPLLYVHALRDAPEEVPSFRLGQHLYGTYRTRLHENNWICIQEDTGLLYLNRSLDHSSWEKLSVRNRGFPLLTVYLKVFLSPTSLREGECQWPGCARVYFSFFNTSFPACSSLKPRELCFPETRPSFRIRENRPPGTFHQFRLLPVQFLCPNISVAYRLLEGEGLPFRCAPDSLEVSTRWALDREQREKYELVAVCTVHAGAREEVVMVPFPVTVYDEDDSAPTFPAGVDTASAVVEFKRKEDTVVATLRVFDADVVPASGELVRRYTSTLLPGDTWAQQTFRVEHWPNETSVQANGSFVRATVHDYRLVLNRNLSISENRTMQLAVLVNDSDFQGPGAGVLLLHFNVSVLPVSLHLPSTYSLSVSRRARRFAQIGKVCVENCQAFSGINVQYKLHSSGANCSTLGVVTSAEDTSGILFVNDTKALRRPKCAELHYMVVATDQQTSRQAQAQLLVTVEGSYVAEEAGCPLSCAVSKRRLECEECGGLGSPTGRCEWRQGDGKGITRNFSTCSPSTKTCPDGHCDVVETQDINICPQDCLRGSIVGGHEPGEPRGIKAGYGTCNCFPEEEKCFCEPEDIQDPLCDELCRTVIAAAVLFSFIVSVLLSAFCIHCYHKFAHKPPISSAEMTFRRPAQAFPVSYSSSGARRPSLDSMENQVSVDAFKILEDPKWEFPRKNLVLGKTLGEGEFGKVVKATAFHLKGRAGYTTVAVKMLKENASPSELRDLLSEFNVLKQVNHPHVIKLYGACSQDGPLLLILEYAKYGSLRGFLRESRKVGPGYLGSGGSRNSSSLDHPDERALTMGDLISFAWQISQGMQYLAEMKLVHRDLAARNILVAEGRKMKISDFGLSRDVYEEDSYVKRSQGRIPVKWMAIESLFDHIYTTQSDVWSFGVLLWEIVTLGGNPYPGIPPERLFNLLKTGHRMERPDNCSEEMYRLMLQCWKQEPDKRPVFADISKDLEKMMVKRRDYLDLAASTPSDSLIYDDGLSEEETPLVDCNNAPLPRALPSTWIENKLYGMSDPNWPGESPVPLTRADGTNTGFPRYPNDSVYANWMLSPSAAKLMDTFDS
Sequence of PRKG1 (Q13976 whole entry): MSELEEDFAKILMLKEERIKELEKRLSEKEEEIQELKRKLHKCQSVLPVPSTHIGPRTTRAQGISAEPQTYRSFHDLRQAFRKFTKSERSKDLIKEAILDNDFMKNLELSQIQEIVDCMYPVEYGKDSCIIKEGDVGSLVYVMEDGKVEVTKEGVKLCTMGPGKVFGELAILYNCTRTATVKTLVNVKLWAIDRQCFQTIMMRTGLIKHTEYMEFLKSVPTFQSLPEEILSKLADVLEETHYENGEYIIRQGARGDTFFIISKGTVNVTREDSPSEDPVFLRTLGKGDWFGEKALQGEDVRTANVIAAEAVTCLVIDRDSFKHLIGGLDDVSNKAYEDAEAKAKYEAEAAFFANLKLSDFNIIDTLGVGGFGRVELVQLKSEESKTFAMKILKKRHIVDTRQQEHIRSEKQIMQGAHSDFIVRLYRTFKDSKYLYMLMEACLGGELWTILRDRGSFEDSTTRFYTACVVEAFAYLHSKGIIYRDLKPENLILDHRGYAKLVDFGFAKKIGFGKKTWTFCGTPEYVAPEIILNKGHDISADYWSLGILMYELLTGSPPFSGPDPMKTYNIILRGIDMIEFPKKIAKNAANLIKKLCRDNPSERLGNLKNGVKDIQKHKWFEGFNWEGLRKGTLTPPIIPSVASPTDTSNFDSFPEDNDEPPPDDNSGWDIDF

Regarding `CSc1nc(-c2cccc(NC(=O)c3cccc4c3NC(=O)c3ccccc3N4)c2)c(-c2ccnc(NC(C)=O)c2)[nH]1` [Compound 2], the IC50 – broadly, the concentration at which inhibition is half-maximal – at WT EGFR kinase domain was less than 10 nM.

With `C=CC(=O)Nc1ccc(OC)c(Nc2cc(-c3[nH]c(CC)nc3-c3cccc(NC(=O)c4cccc5c4NC(=O)c4ccccc4N5)c3)ccn2)c1` [Compound 4], the POC was 97% of control on PKNB(M.tuberculosis); 86% of control at DAPK1; 51% of control on HIPK1; 94% of control on PIKFYVE; 100% of control on ERK8; 85% of control on CAMKK1. The POC at MEK5 is recorded as 41% of control; on ABL2 it was 92% of control; at MEK2 it was 100% of control; on IKK-epsilon it was 100% of control; on PKAC-alpha, 100% of control; at TYRO3, 32% of control. In addition, the POC on FLT3(D835Y) was 96% of control; on STK33, 100% of control; on HCK, 14% of control; on TSSK1B, 95% of control; on RET(V804L), 99% of control; at PRKCI, 100% of control. Moreover, the POC at PRKG1 is 100% of control; at BRAF, 90% of control; on EGFR(L747-S752del+P753S), 16% of control; at PIP5K1C, 78% of control; in assay [1] it was 100% of control; at TBK1 it was 95% of control. Besides, the POC is listed as 79% of control on RIPK5; 100% of control at PIK3CA(E542K); 87% of control at CHEK2; 90% of control at IGF1R; 69% of control at MET; 100% of control on EPHB6. Further, the POC at CAMK1B is on record as 94% of control; at MET(M1250T) it was 89% of control; at NEK4 it was 100% of control; at GRK2 it was 100% of control; at SRC, 73% of control; on BRSK2 it was 93% of control. For the same compound, the POC at CASK was 97% of control; at DCAMKL2, 100% of control.
